Reference: patent US12201608B2, “Methods for treating Parkinson's disease by administering resiniferatoxin” (Sorrento Therapeutics, Inc., priority 2018, dated 2025)
Entries after “also recorded” stand apart in the source; their conditions may differ.

Key:
[1] = system: AAV-A53T mouse model of Parkinson's Disease-like (PD) pathology; assay: Fine motor kinematic gait analysis 7 weeks after AAV infusion; type: in vivo, C57Bl/6J male mice; conditions: for overall gait analysis score: vs AAV1/2-A53T Vehicle
Procedure: (§1) For this study, a total of 110 male C57Bl/6J mice two months of age were infused with either AAV-A53T (90 mice) or AAV-Null (20 mice) into substantia nigra unilaterally to induce PD-like pathology or to serve as sham controls, respectively. Mice infused with AAV-Null (empty) vector (“sham-infused” mice) were used in order to control for the effect of the viral infusion. After 7 or 14 days of AAV-A53T mediated disease model induction, the mice were treated with RTX (0.04 μg or 0.125 μg) (5 μL volume, prepared from a 25 μg/ml RTX solution containing Polysorbate 80 at 0.03% w/v, dextrose at 0.05% w/v, Phosphate Buffer at 30 mM, and NaCl 0.54% w/v, pH 7.2, and diluted in saline as needed) by single intrathecal infusion at lumbar spinal cord area. One AAV-Null and AAV-A53T infused group per each time point were treated with vehicle instead of RTX.
The mice were then treated with RTX or vehicle by intrathecal infusion 7 or 14 days after AAV infusion. The mice were assigned to treatment groups as follows: • Group 1: 10 male mice sham-infused with AAV-null, and administered vehicle at D7. • Group 2: 15 male mice infused with AAV-A53T, and administered vehicle at D7. • Group 3: 15 male mice infused with AAV-A53T, and administered 0.04 μg of RTX at D7. • Group 4: 15 male mice infused with AAV-A53T, and administered 0.125 μg of RTX at D7. • Group 5: 10 male mice sham-infused with AAV-null, and administered vehicle at D14. • Group 6: 15 male mice infused with AAV-A53T, and administered vehicle at D14. • Group 7: 15 male mice infused with AAV-A53T, and administered 0.04 μg of RTX at D14. • Group 8: 15 male mice infused with AAV-A53T, and administered 0.125 μg of RTX at D14.
The fine motor skills of the mice were evaluated 7 weeks post infusion (MotoRater, TSE Systems, Homburg, Germany) using walking mode. On the day of testing the mice were marked in appropriate points of body, such as joints of limbs and parts of tail to ease the data analysis process. The movement data was captured using a high-speed camera (300 frames/second) from three different dimensions, from below and both sides. Different gait patterns and movements were analyzed using a custom-made automated analysis system. The analyzed parameters include: 1) general gait pattern parameters (stride time and speed, step width, stance and swing time during a stride, interlimb coordination), 2) body posture and balance (toe clearance, iliac crest and hip height, hind limb protraction and retraction, tail position and movement), and 3) fine motor skills (swing speed during a stride, jerk metric during swing phase, angle ranges and deviations of different joints, vertical and horizontal head movement).
The gait parameters always have several (and complex) inter-correlations. For example, a shorter stride duration and longer step lengths lead to higher speed. Different “gait features”, which are manifested in sets of highly correlating parameters, can be identified using Principal Component Analysis (PCA). Principal Component Analysis is a statistical tool to compact the information in a multivariate data set, reveal correlations between original variables, and ultimately, create a small set of new and sensitive uncorrelated parameters, the principal components (PC).
PCA is a linear transformation based on principal component coefficients and eigenvectors. The transformed, new, uncorrelated variables are called the PC scores. The first principal component (PC) corresponds to such linear combination of data which has the largest possible variance. The second PC has again the largest possible variance of what is left when the proportion of the first PC is discarded, and so on for the rest of the PCs. The eigen vectors also reveal information about the internal structure of the data, i.e., mutually correlated parameters. Each PC score represent combined information of all the parameters which are emphasized in the corresponding PC. […]

[2] = Body weight monitoring in AAV-A53T / AAV-Null infused mice; type: in vivo, C57Bl/6J male mice; conditions: single intrathecal 0.04 μg or 0.125 μg, 7 or 14 days after AAV-A53T or AAV-Null infusion, 8 week study, two-way ANOVA
Procedure: as §1
The mice were then treated with RTX or vehicle by intrathecal infusion 7 or 14 days after AAV infusion. […]
Body weight of the animals was monitored two times per week. […] Dopamine and its metabolites were analyzed from ipsilateral and contralateral striata by high performance liquid chromatography (HPLC).
Body weight of the mice was measured twice-per week (on Mondays and Fridays) for the whole study duration.

[3] = D7 both doses, vs AAV-A53T Vehicle, p<0.05 unpaired t-test
[4] = D7 high dose, vs AAV-A53T Vehicle, p<0.05 unpaired t-test

Q: Which diagonal gait [1, 3] does the source give for `C=C(C)[C@]12C[C@@H](C)[C@@]34O[C@](Cc5ccccc5)(O[C@@H]1[C@@H]3C=C(COC(=O)Cc1ccc(O)c(OC)c1)C[C@]1(O)C(=O)C(C)=C[C@@H]41)O2` [RTX, Resiniferatoxin] here?
A: Its diagonal gait is “significantly recovered”.

Q: And the “hip ROM” value [1, 3]?
A: Its value is “significantly recovered”.

Q: And the “hind limb stance time” value [1, 4]?
A: Its value is “significantly recovered”.

Q: What about the “hip ROM deviation” value [1, 4] of the same compound?
A: Its value is “significantly recovered”.

Q: What about the “homolateral and homologous gait” value [1, 4] of the same compound?
A: The value was “significantly recovered”.

Q: What about the minimum knee angle [1, 4] of the same compound?
A: Its minimum knee angle is “significantly recovered”.

Q: What about the “single and double support” value [1, 4] of the same compound?
A: Its value is “significantly recovered”.

Q: What about the stride time [1, 4] of the same compound?
A: Its stride time is “significantly recovered”.

Q: And the support diagonal [1, 4]?
A: The support diagonal was “significantly recovered”.

Q: And the support three [1, 4]?
A: The support three was “significantly recovered”.

Q: And the head rotation ([1]; D14 both doses, vs AAV-A53T Vehicle, p<0.05 unpaired t-test)?
A: Its head rotation is “significantly recovered”.

Q: What about the “hip ROM” value ([1]; D14 high dose, vs AAV-A53T Vehicle, p<0.05 unpaired t-test) of the same compound?
A: The value was “significantly recovered”.

Q: What about the “overall gait analysis score” value ([1]; RTX 0.04 μg at D7, Dunnett's test p=0.0063) of the same compound?
A: Its value is “significant treatment effect; also recorded: significantly improved”.

Q: And the “overall gait analysis score” value ([1]; RTX 0.125 μg at D7, Dunnett's test p=0.0011)?
A: The value was “significant treatment effect; also recorded: significantly improved”.

Q: And the “overall gait analysis score” value ([1]; both RTX doses at D14, p>0.05 one-way ANOVA)?
A: Its value is “statistically non-significant trend towards the respective AAV-Null group; also recorded: statistically non-significant trending effect; also recorded: not statistically significant; also recorded: trend towards the AAV1/2-Null group”.

Q: And the “recovery of motor functions / motor skills” value ([1]; early RTX treatment (D7), analyzed 7 weeks after AAV infusion)?
A: Its value is “significant rescuing effect; also recorded: dose-dependent recovery of motor functions”.

Q: What about the body weight [2] of the same compound?
A: The body weight was “steady weight gain was observed similarly in vehicle and RTX treated groups; also recorded: No significant differences between the groups”.

Q: What about the body weight ([2]; listed as resiniferatoxin) of the same compound?
A: Its body weight is “No significant differences between the groups”.
